Measurements from ChEMBL document CHEMBL6120937, “PROTAC technology: From drug development to probe technology for target deconvolution” (Eur J Med Chem, 2024).
Blank lines part the entries; values can stand above or below the compound they belong to.

Legend:
[1] = tested on: Jurkat; experiment: Antiproliferative activity against human Jurkat cells assessed as reduction in cell viability incubated for 72 hrs by CCK-8 assay; assay type: functional, cell-based
[2] = Inhibition of hedgehog in […] cells; assay type: cell-based
[3] = tested on: HCT-116; experiment: Cytotoxicity against human HCT-116 cells assessed as reduction in cell growth incubated for 72 hrs by CCK-8 assay; assay type: functional, cell-based; conditions: HCT-116, 72 h
[4] = tested on: RAW264.7; experiment: Anti-inflammatory activity in mouse RAW264.7 cells assessed as inhibition of LPS-induced NO production incubated for 24 hrs by Griess reagent based analysis; assay type: functional, cell-based; conditions: RAW264.7, 24 h

IC50 [1]: 0.25 µM
Compound: CC1=C(O)C(=O)C=C2C1=CC=C1[C@@]2(C)CC[C@@]2(C)[C@@H]3C[C@](C)(C(=O)NCCOCCNc4cccc5c4C(=O)N(C4CCC(=O)NC4=O)C5=O)CC[C@]3(C)CC[C@@]12C (some centres undefined)

IC50 [2]: 6.21 µM
Compound: COCCOC(=O)C1=C(c2cccc(OCc3cn(CCCCCCOc4cccc5c4C(=O)N(C4CCC(=O)NC4=O)C5=O)nn3)c2)C2=C(CC(c3ccccc3OC)CC2=O)NC1C (centres undefined)

Compound: CN1c2ccc(F)cc2C(=O)N2CCc3c([nH]c4ccc(OCCCNC(=O)CCCCCC#Cc5cccc6c5CN(C5CCC(=O)NC5=O)C6=O)cc34)C21 (centres undefined)
IC50 [3]: 0.02 µM

IC50 [4]: 8.34 µM
Compound: C=C1CCC2C(/C=C(\C)C(=O)[C@@]3(O)C[C@H](C)[C@H](O)C3[C@H]1OCc1cn(CCOCCOCCOCCNc3cccc4c3C(=O)N(C3CCC(=O)NC3=O)C4=O)nn1)C2(C)C (some centres undefined)
